Laboratory results: patent US20170343549A9, “METHODS FOR DETECTING AND MONITORING COLORECTAL CANCER” (REGENTS OF THE UNIVERSITY OF MINNESOTA, priority 2015, published 2017)
“Also recorded” adds a separate entry of the source.

Experiments:
Type in all cases: in vivo, human
TBXA2R = experiment: Immunohistochemistry staining of TBXA2R in polyps of FAP patients, aspirin users vs nonusers; conditions: epithelial cells from polyps, aspirin intake, FIG. 4B
Description: (§1) All clinical studies using human subjects or human materials were approved by the Mayo Clinic review board. Volunteers were recruited by the Gastroenterology and Hepatology group at Mayo Clinic, Rochester, Minn. Individuals in the healthy control group (n=16) were normal patients who underwent colonoscopy screening. Familial adenomatous polyposis (FAP) patients who reported taking two or more standard (325 mg) aspirin tablets per week were classified as regular aspirin users (n=14) and those reporting consumption of less aspirin were classified as aspirin nonusers (n=24) (Chan et al., 2007. N Engl J Med 356 (21):2131-2142). Individuals in the sporadic colorectal cancer group (n=20) were patients who were diagnosed with colorectal cancer, but without a family history of colorectal cancer. Other inclusion criteria were as follows: age at 18-75 years old; gender ratio approximately 1:1; and a non-smoking history.
(§2) Surgically resected human colon tissues at all clinical stages were fixed in 10% formalin overnight at room temperature. […] Immunohistochemistry staining intensity was quantified by calculating the integrated optical density (IOD, sum) of area of interest using the Image Pro-Plus 7.0 software program (Media Cybernetics, Inc., Rockville, Md.).

Ki-67 = experiment: Immunohistochemistry staining of Ki-67 in polyps of FAP patients, aspirin users vs nonusers; conditions: epithelial cells from polyps, aspirin intake, FIG. 4B
Description: as §1, §2

circulating TXA2 = experiment: Circulating TXA2 level in FAP patients, regular aspirin users vs nonusers (plasma enzyme immunoassay); conditions: regular aspirin use (two or more 325 mg tablets per week, n=14) vs nonusers (n=24), FIG. 4A
Description: as §1, with “history. The measurement of PGs in plasma from patients was performed using enzyme immunoassay kits from Cayman Chemical Co. (Ann Arbor, Mich.) following the manufacturer's instructions. Briefly, blood was collected from a vein in the arm just inside the elbow using a 22 gauge needle. Before blood collection, the tourniquet was applied about three inches above the selected puncture site. […]” for “history.”

TBXAS1 = experiment: Immunohistochemistry staining of TBXAS1 in polyps of FAP patients, aspirin users vs nonusers; conditions: epithelial cells from polyps, aspirin intake, FIG. 4B
Description: as §1, §2

the other four PGs = experiment: Circulating levels of the other four PGs in FAP patients, regular aspirin users vs nonusers (plasma enzyme immunoassay); conditions: regular aspirin use vs nonusers, FIG. 4A
Description: as §1, with “history. The measurement of PGs in plasma from patients was performed using enzyme immunoassay kits from Cayman Chemical Co. (Ann Arbor, Mich.) following the manufacturer's instructions. Briefly, blood was collected from a vein in the arm just inside the elbow using a 22 gauge needle. Before blood collection, the tourniquet was applied about three inches above the selected puncture site. […]” for “history.”

## CC(=O)Oc1ccccc1C(=O)O [aspirin]
TBXA2R
  expression of TBXA2R: lower expression
Ki-67
  expression of Ki-67: lower expression
Circulating TXA2
  circulating TXA2 level: significant (p<0.001) decrease; also recorded: significantly decreased
TBXAS1
  expression of TBXAS1: lower expression
The other four PGs
  levels of the other four PGs: little effect
